The IC50 is the point on the concentration scale where inhibition reaches its midpoint.

The values below come from patent US20260137697A1, “THIAZOLO[5,4-D]PYRIMIDINE COMPOUNDS, COMPOSITIONS COMPRISING THEM AND USES THEREOF” (University de Montreal, priority 2022, published 2026).

Bounds are passed on as bounds.

For test [1], the target named is T1, BRAF (Homo sapiens, UniProt P15056).
T1 construct: GST; purchased Millipore Sigma B4062-10UG
Briefly: BRAF kinase activity assay (ADP-Glo). It counts as biochemical. The conditions noted are these: Table 3; 10 μM ATP, kinase-dead MEK1 substrate. The procedure:
(§1) Compound preparation: solid samples of each substance in 1dram vials were suspended in DMSO (Fisher Scientific) at a stock concentration of 20 mM. Stocks were kept at −20° C. and protected from light. If solubility of the compound at 20 mM appeared to be an issue, the initial concentration of the DMSO stock was changed to 10 mM or 5 mM.
(§2) In vitro enzymatic reactions were used for evaluating compounds intrinsic activity against BRAF, CRAF and ARAF. For BRAF and CRAF, 0.375 nM of purified GST-tagged kinases (cat. No. B4062-10UG and cat. No. R1656-10UG respectively from Millipore Sigma) were incubated with 75 nM of kinase-dead MEK1 substrate (cat. No. 40075; BPS Bioscience) in the presence of 10 μM of Ultrapure ATP (cat. No. V9102; Promega; part V915A) with and without the test compound in a buffer containing 50 mM HEPES pH 7.5, 10 mM MgCl2, 1 mM EDTA, 0.01% Brij-35 and 2 mM DTT. Separate reactions were performed with the MEK1 substrate and ATP as a blank control. ARAF kinase reactions were rigorously the same with the exception that kinase concentration was raised to 3.75 nM (cat. No. 1768-0000-1; Reaction Biology).
(§3) For compound treatment, 5 μL/well of test substance solution are placed in a 384-well proxyplate (Perkin Elmer) and mixed with 2× concentrated kinase reactions. The dilution series is selected so that nine concentrations cover a range from 100 nM to 0.01 nM. […] The final concentration of DMSO in the assay is set at 0.05%.
(§4) BRAF and CRAF kinase reactions were carried out for a total of 2 hours at 30° C. and then stopped by 1/2 dilution in ADP-Glo Reagent (cat. No. V9102; Promega; part V912C). Reactions were then incubated for 1 h at room temperature before addition of one volume of Kinase Detection Reagent (cat. No. V9102; Promega; part V917A). Plates were then equilibrated at room temperature for 30 minutes before detection of luminescence on a Synergy Neo2 plate reader (Biotek). The effect of each compound dilution on BRAF and CRAF kinase activity was expressed as % inhibition and calculated as follows. First, the internal 100% inhibition control (average of luminescence in kinase reactions comprising kinase dead MEK1 substrate alone) was subtracted from each data point. The average of DMSO (vehicle) controls (set as 0% inhibition) was established and used to calculate % inhibition:
(§5) IC50 values were obtained by plotting the kinase inhibition values and fitting the dose-activity curves using a log(agonist) versus response—variable slope (four parameters) function using either GraphPadPrism (V7.0) or Dotmatics Screening Ultra platform. Standards included in the ARAF kinase assay were Belvarafenib (MedChem Express cat. No. HY-109080; CAS No. 1446113-23-0), LXH254 (MedChem Express cat. No. HY-112089; CAS No. 1800398-38-2) and BGB283 (cat. No. HY-18957; CAS No. 1446090-79-4).
In general terms: ADP-Glo turns the ADP formed in a reaction into a luminescent signal.

Test [2] concerns the target T2, CRAF (Homo sapiens, UniProt P04049).
T2 construct: fused on or other part: GST tag (N-terminal according to the vendor's product)
Put plainly: CRAF kinase activity assay (ADP-Glo). The test is classed as biochemical. Particulars: Table 3; 10 μM ATP, kinase-dead MEK1 substrate. The protocol: as §1, §2, §3, §4, §5

Test [3] deals with pERK, HCT116 cells. Briefly: Phospho-ERK inhibition, AlphaLISA p-ERK 1/2, HCT-116. It counts as cell-based, human. Particulars: Table 3; for IC50: HCT116 cells (KRAS G13D), 1 h treatment; for HCT116 pERK (Ymin %): lowest % inhibition value of the pERK IC50 curve, above −20% = no paradoxical induction. The procedure: All cancer cell lines (A375, A101D, A2058, RKO, HT29 SK-MEL 30, IPC298, HepG2, HCT-116, Lovo, SW620, SW480, NCI-H358, NCI-H2122, Calu-6, NCIH2087, NCIH1755, NCIH1666 and Mewo) were obtained from ATCC and cultured in RPM1-1640 medium (Gibco) supplemented with 5% heat inactivated fetal bovine serum (FBS, Wisent) at 37° C. under 5% CO2. Cells were maintained in T175 flasks (Greiner). They were passaged by removing the culture medium, washing once in 10 mL of room temperature Phosphate Buffered Saline (PBS; Wisent) and incubating at 37° C. with 2 mL of 0.05% Trypsin (Thermo-Fisher). Trypsin was then inactivated by adding complete growth medium and the cells were then replated in a T175 culture dish at the appropriate dilution. All cell lines were routinely tested for mycoplasma contamination. Tissue type and mutational status of each cell line can be found in Table B.
(c) Measurement of Phospho-ERK Inhibition in Cultivated Human Cancer Cell Lines by the AlphaLISA® SureFire® Ultra™ p-ERK 1/2 (Thr2O2/Tyr204)
AlphaLISA® SureFire® Ultra™ p-ERK 1/2 (Thr202/Tyr204) analysis was conducted on cells plated in 100 μL of complete RPMI-1640 growth medium in 96-well flat-bottomed transparent dishes (Costar) at a density indicated in Table C. Cells were maintained overnight at 37° C. under 5% CO2 before treatment with compounds' dilution series for one hour. The cell density in cells/cm^2 corresponds to cell number divided by the area of one well of a 96-well plate (0.143 cm^2).
In a dilution series 100 μL/well of test substance dilution prepared in complete RPMI-1640 growth media was added to the cells. The dilution series is selected so that ten concentrations cover a range from 10 μM to 0.33 nM. If necessary, the initial concentration of 10 μM is increased to 100 μM or lowered to 1 μM (as in the case of A375 and H1666 cells, which are generally more sensitive to the compounds) and further dilution is carried out accordingly. The final concentration of DMSO in the assay is set at 0.5%.
After treatment, media was removed, and cells were lysed in 50 μL of 1× AlphaScreen Ultra Lysis Buffer (Perkin Elmer). The AlphaLISA® SureFire® Ultra™ p-ERK 1/2 (Thr202/Tyr204) (PerkinElmer) reactions were performed with 5 μL of cell lysate according to the manufacturer's specifications in 384-well proxyplates (Perkin Elmer) followed by overnight incubation of the reactions at room temperature in a humidified chamber. After completion of the reactions, the signals were recorded on an EnVision plate reader (Perkin Elmer) using built in AlphaLISA® settings.
The effect of each compound dilution on the pERK signal was expressed in % inhibition and calculated as follows. An internal 100% inhibition control (1 μM trametinib, cat. No. HY-10999; MedChem Express; CAS No. 871700-17-3) was included in each plate and used as a measure of pERK background. First, the value obtained for trametinib was subtracted from each data point. The average of DMSO (vehicle) controls (set as 0% inhibition) was established and used to calculate % inhibition:
The ability of each compound to inhibit pERK signal was expressed as an IC50 value obtained by plotting the inhibition values for each data point of a dilution series and fitting the obtained curves using a log(agonist) versus response—variable slope (four parameters) function using GraphPadPrism (V7.0) or Dotmatics Screening Ultra platform.
When present, paradoxical pERK induction is inferred from the negative % inhibition values observed in the pERK IC50 curves of a compound.
Background: In Alpha technology, singlet oxygen from a donor bead excites a nearby acceptor bead.

T1 sequence (P15056 whole entry): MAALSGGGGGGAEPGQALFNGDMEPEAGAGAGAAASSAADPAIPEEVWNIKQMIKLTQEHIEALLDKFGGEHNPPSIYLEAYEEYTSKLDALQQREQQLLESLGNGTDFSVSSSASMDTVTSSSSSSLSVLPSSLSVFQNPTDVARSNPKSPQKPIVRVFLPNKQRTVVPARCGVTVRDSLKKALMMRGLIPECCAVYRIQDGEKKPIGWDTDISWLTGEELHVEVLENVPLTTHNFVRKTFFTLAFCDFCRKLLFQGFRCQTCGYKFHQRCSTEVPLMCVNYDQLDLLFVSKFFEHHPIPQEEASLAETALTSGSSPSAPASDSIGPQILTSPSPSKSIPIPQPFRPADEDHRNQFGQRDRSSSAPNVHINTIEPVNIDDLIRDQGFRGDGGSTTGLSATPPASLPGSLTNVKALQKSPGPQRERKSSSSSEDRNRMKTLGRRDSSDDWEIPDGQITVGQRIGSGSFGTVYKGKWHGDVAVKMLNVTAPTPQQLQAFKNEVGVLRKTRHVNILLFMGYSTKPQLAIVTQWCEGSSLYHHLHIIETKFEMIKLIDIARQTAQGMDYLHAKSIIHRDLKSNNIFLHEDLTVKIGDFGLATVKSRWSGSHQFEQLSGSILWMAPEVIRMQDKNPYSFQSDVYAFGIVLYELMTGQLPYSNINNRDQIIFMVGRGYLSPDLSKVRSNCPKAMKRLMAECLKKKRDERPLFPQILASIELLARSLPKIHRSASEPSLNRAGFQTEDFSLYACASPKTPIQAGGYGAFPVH
T2 sequence (P04049 whole entry Y340E/Y341E, form open, the tested form may be a part): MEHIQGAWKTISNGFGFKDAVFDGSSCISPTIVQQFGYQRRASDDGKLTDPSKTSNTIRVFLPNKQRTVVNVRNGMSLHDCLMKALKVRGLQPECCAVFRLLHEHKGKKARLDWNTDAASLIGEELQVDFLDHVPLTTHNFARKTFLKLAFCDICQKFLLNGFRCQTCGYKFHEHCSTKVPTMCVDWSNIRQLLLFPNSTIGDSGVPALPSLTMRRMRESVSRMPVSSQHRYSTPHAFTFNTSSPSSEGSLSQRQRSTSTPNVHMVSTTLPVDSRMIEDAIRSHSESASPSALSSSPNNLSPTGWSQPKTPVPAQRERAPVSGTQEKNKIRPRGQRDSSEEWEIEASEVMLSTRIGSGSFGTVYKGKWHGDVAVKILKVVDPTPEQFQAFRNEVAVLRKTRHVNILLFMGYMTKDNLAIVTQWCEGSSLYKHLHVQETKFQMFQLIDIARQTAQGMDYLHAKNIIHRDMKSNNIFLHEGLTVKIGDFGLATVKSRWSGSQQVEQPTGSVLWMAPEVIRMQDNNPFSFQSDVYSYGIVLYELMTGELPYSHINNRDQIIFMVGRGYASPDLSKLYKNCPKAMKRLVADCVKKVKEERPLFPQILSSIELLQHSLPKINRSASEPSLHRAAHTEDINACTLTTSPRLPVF

With `CC(=O)c1cn(-c2nc3c(Nc4c(F)ccc(NS(=O)(=O)c5cccc(Cl)c5Cl)c4F)ncnc3s2)c2ccccc12` [Example 88], the IC50 is 1 to 10 nM in test [1], over 50 nM in test [2] and 1000 to 10000 nM in test [3]. In test [3], the “HCT116 pERK (Ymin %)” value was −8%.
On the same counts, the results for `CC1(O)CCN(C(=O)c2cn(-c3nc4c(Nc5c(F)ccc(NS(=O)(=O)c6cccc(Cl)c6Cl)c5F)ncnc4s3)c3ccccc23)CC1` [Example 85] are 1 to 10 nM, under 10 nM, under 500 nM and 8%.
In the same order, the values of `CN1CC2CCC(C1)N2C(=O)c1cn(-c2nc3c(Nc4c(F)ccc(NS(=O)(=O)c5cccc(Cl)c5Cl)c4F)ncnc3s2)c2ccccc12` [Example 56] are under 1 nM, under 10 nM, under 500 nM and 0%.
As to `COc1ccc(S(=O)(=O)Nc2ccc(F)c(Nc3ncnc4sc(-n5cnc6c(N)cccc65)nc34)c2F)c(C)c1F` [Example 15], the IC50 was 1 to 10 nM in test [1], 10 to 50 nM in test [2] and under 500 nM in test [3]. Also, in test [3], the “HCT116 pERK (Ymin %)” value is reported as −3%.
On the same counts, the results for `Nc1cccc2c1ncn2-c1nc2c(Nc3c(F)ccc(NS(=O)(=O)c4cccc(Cl)c4Cl)c3F)ncnc2s1` [Example 3] are 1 to 10 nM, under 10 nM, under 500 nM and −9%.
On to `CC(C)(O)C1CCCN1C(=O)c1cn(-c2nc3c(Nc4c(F)ccc(NS(=O)(=O)c5cccc(Cl)c5Cl)c4F)ncnc3s2)c2ccc(F)cc12` (centres unmarked) [Example 101], for which the IC50 in test [1] was over 10 nM; in test [2], 10 to 50 nM; in test [3], under 500 nM. Besides, the “HCT116 pERK (Ymin %)” value in test [3] was 0%.
In the case of `CN(C)CCN(C)S(=O)(=O)c1cn(-c2nc3c(Nc4c(F)ccc(NS(=O)(=O)c5cccc(Cl)c5Cl)c4F)ncnc3s2)c2ccccc12` [Example 41], the IC50 in test [1] was under 1 nM; in test [2], under 10 nM; in test [3], under 500 nM. Besides, in test [3], the “HCT116 pERK (Ymin %)” value was determined as 0%.
For the molecule `O=S(=O)(Nc1ccc(F)c(Nc2ncnc3sc(-n4cnc5c(F)cccc54)nc23)c1F)c1cccc(Cl)c1Cl` [Example 18], the IC50 in test [1] was under 1 nM; in test [2] it was under 10 nM; in test [3], under 500 nM. The “HCT116 pERK (Ymin %)” value in test [3] was determined as 0%.
Turning to `NS(=O)(=O)c1cn(-c2nc3c(Nc4c(F)ccc(NS(=O)(=O)c5cccc(Cl)c5Cl)c4F)ncnc3s2)c2ccccc12` [Example 61], the values for the IC50 in test [1], in test [2] and in test [3] were 1 to 10 nM, under 10 nM and under 500 nM, respectively. For the same molecule, the “HCT116 pERK (Ymin %)” value in test [3] was −13%.
On the same counts, the results for `Cc1c(F)cccc1S(=O)(=O)Nc1ccc(F)c(Nc2ncnc3sc(-n4cnc5ccccc54)nc23)c1F` [Example 7] are 1 to 10 nM, under 10 nM, under 500 nM and −5%.
On the same counts, the results for `O=S(=O)(Nc1ccc(F)c(Nc2ncnc3sc(-n4cnc5ccccc54)nc23)c1F)c1ccccc1Cl` [Example 37] are 1 to 10 nM, under 10 nM, under 500 nM and −11%.
On the same counts, the results for `O=S(=O)(Nc1ccc(F)c(Nc2ncnc3sc(-n4cc(S(=O)(=O)N5CC(C(F)F)C5)c5ccccc54)nc23)c1F)c1cccc(Cl)c1Cl` [Example 76] are over 10 nM, 10 to 50 nM, 1000 to 10000 nM and −10%.
For the molecule `COCCCN(C)c1cccc2c1ncn2-c1nc2c(Nc3c(F)ccc(NS(=O)(=O)c4cccc(Cl)c4Cl)c3F)ncnc2s1` [Example 128], the values for the 50% inhibitory concentration (IC50) in test [1], in test [2] and in test [3] were 1 to 10 nM, 10 to 50 nM and under 500 nM, respectively. Further, in test [3], the “HCT116 pERK (Ymin %)” value was 1%.
As to `CN(Cc1cccnc1)C(=O)c1cn(-c2nc3c(Nc4c(F)ccc(NS(=O)(=O)c5cccc(Cl)c5Cl)c4F)ncnc3s2)c2ccccc12` [Example 46], the figures for the half-inhibitory concentration (IC50) in test [1], in test [2] and in test [3] were 1 to 10 nM, under 10 nM and under 500 nM, respectively. The “HCT116 pERK (Ymin %)” value in test [3] is 1%.
Turning to `Cc1ncn(-c2nc3c(Nc4c(F)ccc(NS(=O)(=O)c5cccc(F)c5C)c4F)ncnc3s2)c1C` [Example 1], the 50% inhibitory concentration (IC50) in test [1] was 1 to 10 nM; in test [2], under 10 nM; in test [3] it was under 500 nM. The “HCT116 pERK (Ymin %)” value in test [3] is −11%.
In the case of `O=S(=O)(Nc1ccc(F)c(Nc2ncnc3sc(-n4cnc5c(N6CCC7(CCOC7)CC6)cccc54)nc23)c1F)c1cccc(Cl)c1Cl` [Example 146], the IC50 was over 10 nM in test [1], over 50 nM in test [2] and under 500 nM in test [3]. Besides, the “HCT116 pERK (Ymin %)” value in test [3] is recorded as −12%.
With `Cc1c(F)cccc1S(=O)(=O)Nc1ccc(F)c(Nc2ncnc3sc(-n4nc(C(=O)N5C6CCC5COC6)c5ccccc54)nc23)c1F` [Example 34], the results for the IC50 in test [1], in test [2] and in test [3] were over 10 nM, 10 to 50 nM and 1000 to 10000 nM, respectively. For the same molecule, the “HCT116 pERK (Ymin %)” value in test [3] was −13%.
